Ends that are not written are not given here.
How the values were obtained:
[1] = Toxicity at high dosages; assay type: in vivo; conditions: high dosages of 50 mg per kg body weight per day or higher
Experimental: The dosage of Ezrin peptide 1 and its analogues is not particularly critical, as Ezrin peptide 1 and its analogues are not toxic even at high dosages of 50 mg per kg body weight per day or higher. Preferably, Ezrin peptide 1 and its analogues are administered to an adult human in an amount of at least 0.1 mg per day, in particular at least 0.2 mg per day, e.g. in an amount of at least 0.5 mg per day, such as 0.1 to 50 mg per day or 0.2 to 20 mg per day or 0.5 to 10 mg per day. Typically for parental administrations lower dosages will be required than for oral or rectal administration. To achieve a rapid relief of the symptoms of COVID-19 it may be reasonable to administer at least 1 mg per day or at least 2 mg per day but in other cases a lower dosage may be suitable.

[2] = tested on: J-96 Human Cell Line; conditions: cell cultures (Ataullakhanov et al. 2005); cited from earlier work
[3] = tested on: SARS-COV-2; test: Treatment of COVID-19 patients with Ezrin peptide 1 (individual case reports, Examples 1-6); assay type: in vivo, human
[4] = tested on: inflammatory cytokine production; conditions: cell cultures; cited from earlier work

In the case of “TEKKRRETVEREKE [Ezrin peptide 1, NH2_Thr-Glu-Lys-Lys-Arg-Arg-Glu-Thr-Val-Glu-Arg-Glu-Lys-Glu_COOH]”, the toxicity [1] is given as “not toxic”, the anti-viral effect [2] is given as “anti-viral effect” and the “severe complications such as fibrosis of the lungs” value ([3]; Example 1) is given as “did not occur”. For the same sequence, the “course of disease, symptoms” value ([3]; Example 1, patient, 0.2 mg s.c. daily, 16.03.2020, 3rd administration) was “increasing symptoms with strong eye pain”, the “course of disease, symptoms” value ([3]; Example 1, patient, 0.2 mg s.c. daily, 17.03.2020, 4th administration) was “increasing symptoms with more cough” and the “course of disease, symptoms” value ([3]; Example 1, patient, 0.2 mg s.c. daily, 18.03.2020, 5th administration) was “significant signs of recovery, no eye pain, decreasing fever”. The “course of disease, symptoms” value ([3]; Example 1, patient, 0.2 mg s.c. daily, 19.03.2020, 6th administration) was “significant signs of recovery, normal body temperature, no fatigue”, the “course of disease, symptoms” value ([3]; Example 1, patient, 0.2 mg s.c. daily, 20.03.2020, 7th administration) was “return of taste, good general condition” and the “course of disease, symptoms” value ([3]; Example 1, patient, 0.2 mg s.c. daily, 21.03.2020, 8th administration) was “no signs of illness anymore”. The “course of the disease (duration)” value ([3]; Example 1, compared to the course expected for patients of this risk group) was “significantly shorter”, the “severity of symptoms after administration” value ([3]; Example 1, compared with what one would have expected in a patient of this risk group) was “significantly lower” and the “course of disease, symptoms” value ([3]; Example 2, patient, 2 mg s.c., 25.04.2020, second dose) was “still general weakness, shortness of breath, cough, loss of appetite”. The body temperature ([3]; Example 2, patient, 2 mg s.c., 26.04.2020 in the evening, third administration) was 37.5 °C, the “course of disease, symptoms” value ([3]; Example 2, patient, 2 mg s.c., 26.04.2020, third administration) was “Still loss of appetite, slight cough” and the “course of disease, symptoms” value ([3]; Example 2, patient, 2 mg s.c., 27.04.2020, fourth dose) was “Slight cough, slight headache”. For the same sequence, the “course of disease, symptoms” value ([3]; Example 2, patient, 2 mg s.c., 28.04.2020, fifth administration) was “Only slight pain of touching the scalp, still slight weakness”, the “course of disease, symptoms” value ([3]; Example 2, patient, 2 mg s.c., 30.04.2020, sixth administration) was “Significant improvement of clinical symptoms, normal temperature” and the “course of disease, symptoms” value ([3]; Example 2, patient, 01. to 04.05.2020, after six doses, antibiotic coverage) was “taste completely returned, no more cough, no more fever, clinical well-being”. For the same sequence, the “course of disease, symptoms” value ([3]; Example 3, patient, 25.12.2020, therapy begun 23.12.2020 with 2 mg/d s.c.) was “significant improvement of cough and general condition”, the “course of disease, symptoms” value ([3]; Example 3, patient, after completion of therapy (2 mg/d then 0.2 mg/d for four days, s.c.)) was “No further symptoms” and the “course of disease, symptoms” value ([3]; Example 4, patient, 25.12.2020, therapy begun 23.12.2020 with 2 mg/d s.c.) was “significant improvement of cough and general condition”. The “course of disease, symptoms” value ([3]; Example 4, patient, after completion of therapy (2 mg/d two days, 0.2 mg/d four days, s.c.)) was “No further symptoms”, the “course of disease, symptoms” value ([3]; Example 5, patient, 26.12.2020, therapy begun 23.12.2020 with 2 mg/d s.c.) was “significant improvement of symptoms” and the shortness of breath ([3]; Example 5, patient, after subsequent 0.2 mg/d s.c. for fourteen days from 15.01.2021) was “No further shortness of breath”. The “course of disease, symptoms” value ([3]; Example 6, patient, 14.12.2020, 0.2 mg/d s.c. begun 10.12.2020) was “significant improvement of symptoms”, the “course of disease, symptoms” value ([3]; Example 6, patient, 20.12.2020, 0.2 mg/d s.c. for ten days) was “complete recovery of symptoms” and the “production of pro- and inflammatory cytokins (e.g. IL-1, IL-6, TNF-alpha)” value [4] was “reduces”. For the same sequence, the “synthesis of alpha- and beta interferons” value [4] was “induces”.

Source: patent US12629405B2, “Ezrin peptide 1 for use in a method of treating COVID-19” ([…], priority 2020, dated 2026)
